According to PubChem BioAssay (NCI):
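Growth conditions: 96-well plates. Treatment: test compound, 48 hours, 5 concentrations. Analysis: linear interpolation between bracketing concentrations; unreached endpoints set to highest concentration. Abbreviation: GI50, concentration required for 50% inhibition of growth. TGI: concentration producing complete growth inhibition.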

How the values were obtained:
Assay in all cases: NCI tumour cell line growth inhibition, 48 h
[1] = test system: 786-0 renal
[2] = test system: A498 renal
[3] = test system: A549 NSCLC
[4] = test system: ACHN renal
[5] = test system: BT-549 breast
[6] = test system: CAKI-1 renal
[7] = test system: CCRF-CEM leukemia
[8] = test system: COLO 205 colon
[9] = test system: DU-145 prostate
[10] = test system: EKVX NSCLC
[11] = test system: HCC-2998 colon
[12] = test system: HCT-116 colon
[13] = test system: HCT-15 colon
[14] = test system: HL-60(TB) leukemia
[15] = test system: HOP-62 NSCLC
[16] = test system: HOP-92 NSCLC
[17] = test system: HS 578T breast
[18] = test system: HT29 colon
[19] = test system: IGROV1 ovarian
[20] = test system: K-562 leukemia
[21] = test system: KM12 colon
[22] = test system: LOX IMVI melanoma
[23] = test system: M14 melanoma
[24] = test system: MALME-3M melanoma
[25] = test system: MCF7 breast
[26] = test system: MDA-MB-231 breast
[27] = test system: MDA-MB-435
[28] = test system: MOLT-4 leukemia
[29] = test system: NCI-H226 lung
[30] = test system: NCI-H23 lung
[31] = test system: NCI-H460 lung
[32] = test system: NCI-H522 lung
[33] = test system: NCI/ADR-RES ovarian
[34] = test system: OVCAR-3 ovarian
[35] = test system: OVCAR-4 ovarian
[36] = test system: OVCAR-5 ovarian
[37] = test system: OVCAR-8 ovarian
[38] = test system: PC-3 prostate
[39] = test system: RPMI-8226 leukemia
[40] = test system: SF-268 CNS
[41] = test system: SF-295 CNS
[42] = test system: SF-539 CNS
[43] = test system: SK-MEL-2 melanoma
[44] = test system: SK-MEL-28 melanoma
[45] = test system: SK-MEL-5 melanoma
[46] = test system: SK-OV-3 ovarian
[47] = test system: SN12C renal
[48] = test system: SNB-19 CNS
[49] = test system: SNB-75 CNS
[50] = test system: SR leukemia
[51] = test system: SW-620 colon
[52] = test system: T-47D breast
[53] = test system: TK-10 renal
[54] = test system: U251 CNS
[55] = test system: UACC-257 melanoma
[56] = test system: UACC-62 melanoma
[57] = test system: UO-31 renal

SMILES: CN1CCN(c2ccc(Nc3nc(NCCCNS(=O)(=O)c4cccc(F)c4)c4sccc4n3)cc2)CC1
- GI50 [1]: 2.47 µM
- TGI [1]: 6.25 µM
- GI50 [2]: 10.9 µM
- TGI [2]: 23 µM
- GI50 [3]: 10 µM
- TGI [3]: 23.7 µM
- GI50 [4]: 4.49 µM
- TGI [4]: 16.2 µM
- GI50 [5]: 8.19 µM
- TGI [5]: 23.9 µM
- GI50 [6]: 10.8 µM
- TGI [6]: 22.6 µM
- GI50 [7]: 3.99 µM
- TGI [7]: > 100 µM
- GI50 [8]: 3.61 µM
- TGI [8]: 16.1 µM
- GI50 [9]: 10.5 µM
- TGI [9]: 23 µM
- GI50 [10]: 9.48 µM
- TGI [10]: 21.3 µM
- GI50 [11]: 4.35 µM
- TGI [11]: 15.5 µM
- GI50 [12]: 3.73 µM
- TGI [12]: 16.4 µM
- GI50 [13]: 2.18 µM
- TGI [13]: 6.88 µM
- GI50 [14]: 1.78 µM
- TGI [14]: 3.74 µM
- GI50 [15]: 14.8 µM
- TGI [15]: 29 µM
- GI50 [16]: 3.37 µM
- TGI [16]: 17.1 µM
- GI50 [17]: 3.72 µM
- TGI [17]: 34.4 µM
- GI50 [18]: 2.18 µM
- TGI [18]: 5.14 µM
- GI50 [19]: 7.33 µM
- TGI [19]: 20.9 µM
- GI50 [20]: 1.43 µM
- TGI [20]: 9.8 µM
- GI50 [21]: 10.8 µM
- TGI [21]: 40.5 µM
- GI50 [22]: 1.74 µM
- TGI [22]: 3.58 µM
- GI50 [23]: 1.78 µM
- TGI [23]: 3.69 µM
- GI50 [24]: 1.8 µM
- TGI [24]: 3.25 µM
- GI50 [25]: 3.52 µM
- TGI [25]: 14.3 µM
- GI50 [26]: 3.54 µM
- TGI [26]: 12.7 µM
- GI50 [27]: 3.01 µM
- TGI [27]: 11.3 µM
- GI50 [28]: 1.34 µM
- TGI [28]: 12.8 µM
- GI50 [29]: 6.63 µM
- TGI [29]: 20.1 µM
- GI50 [30]: 11.7 µM
- TGI [30]: 25.7 µM
- GI50 [31]: 3.81 µM
- TGI [31]: 14.6 µM
- GI50 [32]: 3.2 µM
- TGI [32]: 14.1 µM
- GI50 [33]: 13.9 µM
- TGI [33]: 38.5 µM
- GI50 [34]: 3.59 µM
- TGI [34]: 15.3 µM
- GI50 [35]: 3.45 µM
- TGI [35]: 14.7 µM
- GI50 [36]: 10.2 µM
- TGI [36]: 22.3 µM
- GI50 [37]: 5.67 µM
- TGI [37]: 23.2 µM
- GI50 [38]: 6.87 µM
- TGI [38]: 25.1 µM
- GI50 [39]: 2.85 µM
- TGI [39]: 13.9 µM
- GI50 [40]: 6.41 µM
- TGI [40]: 24.9 µM
- GI50 [41]: 3.74 µM
- TGI [41]: 13.8 µM
- GI50 [42]: 1.67 µM
- TGI [42]: 3.18 µM
- GI50 [43]: 12.8 µM
- TGI [43]: 25.9 µM
- GI50 [44]: 1.61 µM
- TGI [44]: 3.08 µM
- GI50 [45]: 3.49 µM
- TGI [45]: 12 µM
- GI50 [46]: 17.3 µM
- TGI [46]: 32.3 µM
- GI50 [47]: 11.5 µM
- TGI [47]: 23.8 µM
- GI50 [48]: 7.7 µM
- TGI [48]: 20.2 µM
- GI50 [49]: 11.5 µM
- TGI [49]: 23.9 µM
- GI50 [50]: 1.79 µM
- TGI [50]: 5.5 µM
- GI50 [51]: 4.12 µM
- TGI [51]: 17.2 µM
- GI50 [52]: 10.9 µM
- TGI [52]: 31.1 µM
- GI50 [53]: 14.5 µM
- TGI [53]: 28.2 µM
- GI50 [54]: 3.31 µM
- TGI [54]: 13.5 µM
- GI50 [55]: 1.86 µM
- TGI [55]: 3.81 µM
- GI50 [56]: 2.46 µM
- TGI [56]: 7.07 µM
- GI50 [57]: 10.1 µM
- TGI [57]: 21.7 µM
